A short description of data set [1]: In vitro supersaturation under non-sink conditions (µDISS Profiler, tenfold supersaturation ratio, spray-dried solids). Particulars: for RAUC (AUC ratio spray-dried/crystalline) / RCmax,app (Cmax,app ratio spray-dried/crystalline): tenfold supersaturation ratio, phosphate buffer pH 6.5, 37 °C, 60 min; for Ratio AUC (RAUC) / Ratio Cmax (RCmax,app): pH 6.5, 37 °C. Format: physicochemical. On the procedure: The protocol is described in Edueng et al.. In short, the experiment was initiated by constructing a standard curve (R^2 ≥ 0.97) covering the possible concentrations attained from the supersaturation. […] For this purpose, a small-scale dissolution apparatus, the µDISS Profiler (pION Inc., Billerica, MA, USA), was used. The temperature and stirring rate were maintained at 37 °C and 100 rpm, respectively, and the supersaturation behavior was monitored for 60 min. The experiments were conducted in triplicate for each sample type.
The effects of physical aging and/or crystallization upon storage on the performance at tenfold supersaturation were assessed on the basis of the following parameters: (i) the apparent maximum concentration achieved (Cmax,app); (ii) the area under the curve (AUC); and (iii) the crystallization rate constant (k) (see Figure 9). Cmax,app refers to the maximum supersaturation concentration attained by dissolving amorphous solid in the medium before a decline in concentration was observed. […] The crystallization rate constant (k) defines the rate at which a decrease in concentration was observed. It gives an indication of the crystallization rate upon dissolution and is expressed as the reciprocal of the x-axis time units.
These three parameters were determined using GraphPad Prism version 8.1.0 for Windows (GraphPad Software, San Diego, CA, USA). Cmax,app was obtained by determining descriptive statistics of the tabulated dissolution data. It corresponds to the maximum value or highest point in the dissolution data (referred to as “maximum” in the Graphpad software). The AUC was computed based on the trapezoidal rule. The Cmax,app and AUC of the fresh and the aged/crystallized spray-dried samples were divided by the Cmax,app and AUC of the crystalline samples to obtain the ratios of both parameters (see Equations (1) and (2)). The ratios were then referred to as RCmax,app and RAUC, respectively. The crystallization was approximated following first-order kinetics, leading to Equation (3). The k value was determined by performing a nonlinear curve fitting of Equation (3) from the time point of Cmax,app of the supersaturation profiles of the samples using the same software. (1) RCmax,app=Cmax,SD/Cmax,cryst (2) RAUC=AUCSD/AUCcryst (3) C(t)=(C0−C∞)·e^−k·t+C∞
In Equation (3), C0 is the fitted concentration at t = 0, C∞ is the estimated concentration at infinite time, and k is the rate constant. In our study, the concentration is expressed in µg/mL while k is expressed in min^−1.

The nature of data set [2]: Physical stability study of spray-dried amorphous APIs stored at 75% RH, 25 °C (solid state by Raman, MDSC, PXRD). Particulars: for Estimated Amorphous Content at Day 168 / Crystallization Initiation Propensity / Time to Complete Crystallization / Time to Start Crystallization / Crystal Growth: 75% RH at 25 °C; for Estimated Amorphous Content at Day 168: semi-quantitative Raman analysis; for Stability for 168 Days at 75% RH / Crystallization Initiation Propensity / Time to Complete Crystallization / Time to Start Crystallization / Crystal Growth: spray-dried amorphous API; for Stability for 168 Days at 75% RH: 25 °C; for Time to Complete Crystallization / Time to Start Crystallization: up to 168 days. Format: physicochemical. On the procedure:
The amorphous solids were prepared by spray-drying. In short, solutions containing the APIs of interest were prepared by dissolving the crystalline powder in either ethanol, acetone, or a mixture of 90:10 (% w/w) ethanol/acetone prior to spray-drying. Any unwanted debris and particulate contaminants were removed by filtration (0.45 µm pore size). Thereafter, the solutions were spray-dried using a Büchi B-290-Mini Spray Dryer with an inert loop (Büchi Laboratoriums, Flawil, Switzerland) according to the processing parameters previously described by Edueng et al.. After spray-drying, the collected solids were divided and kept in two different wide-mouth aluminum containers. These open containers were placed in a vacuumed desiccator overnight to remove any residual solvent. The vacuum-dried solids were subsequently characterized with different solid-state analytical methods, studied for their supersaturation behavior, and stored in the stability chamber for 168 days (6 months). Following the overnight vacuum-drying, the spray-dried materials were placed in a stability chamber with a 75% relative humidity level and constant temperature of 25 °C. The samples were stored in open wide-mouth aluminum containers. Samples were withdrawn from the stability chamber at 1, 2, 7, 14, 28, 84, and 168 day(s) for the solid-state analyses. These analyses monitored the physical stability of the amorphous API, and the supersaturation study investigated the impact of solid-state changes on the supersaturation potential and crystallization kinetics. The preparation of these materials and the physical stability protocol are described in detail in Edueng et al..
A Twin-Twin (Bruker, Coventry, UK) measuring in Bragg–Brentano geometry and equipped with a sample rotator was used to collect the X-ray diffractograms of the unprocessed crystalline and freshly spray-dried APIs. The solid samples were gently ground with a mortar and pestle when the powder was too coarse. Thereafter, they were placed on silicon sample holders which rotated at 40 rpm during the measurement. The X-ray source was a rotating copper anode with an accelerating voltage of 40 kV and current of 40 mA. The emitted Cu Kα radiation (λ = 1.54 Å) was used in the measurements. A diffraction pattern in the 2Ө range between 5° and 40° was collected at a scanning step of 0.01° and 0.3 s exposure time at each step. Primary and secondary divergence slits of 0.40 and 2.48 mm, respectively, were used. Since this technique provides a more direct interpretation regarding the amorphous and/or crystalline content of samples, it was used to ensure that the spray-dried APIs were fully amorphous prior to the initiation of other analyses. Based on this information, the reference Raman spectra for the fully amorphous and fully crystalline samples of each compound could be established.
Modulated differential scanning calorimetry (MDSC) was performed to identify and monitor the solid-state form changes of the solids (amorphous, crystalline, or a mixture of both) and to determine the temperatures of glass transition (Tg), crystallization (Tc), and melting (Tm). Approximately 1–5 mg of sample was weighed and transferred into standard aluminum pans. The lids were pin-holed to allow evaporation of any solvent or moisture. Depending on the Tg, the samples were equilibrated at either −70 °C or 0 °C to allow for at least a 20 °C baseline prior to the Tg measurement, followed by heating up to 20–30 °C above the Tm at 3 °C/min and a temperature modulation of ±1 °C every 60 s. Analyses and integrations of the thermograms were performed using TA Instruments Universal Analysis 2000 for Windows (Version 4.5A, Sollentuna, Sweden) software.
In addition to MDSC, the samples were examined by Raman spectroscopy using a Rxn-2 Hybrid Raman Spectrometer (Kaiser Optical System Inc., Ann Arbor, MI, USA). […]

[3] abbreviates: aged and/or crystallized spray-dried (SD Tn, stored at 75% RH).
Where [4] appears, read: 2-day sample (SD T2D; 23% crystalline) stored at 75% RH.
[5] abbreviates: 2-day-old sample containing 23% crystallinity.
Where [6] appears, read: 7-day sample (SD T7D; completely crystalline) stored at 75% RH.
Where [7] appears, read: spray-dried samples (fresh and aged), as summarised in text from Figures 2 and 3.

As to `CC1Cc2ccccc2N1NC(=O)c1ccc(Cl)c(S(N)(=O)=O)c1` (centres unmarked) [Indapamide, indapamide], in data set [1] (setting [3]), the “RAUC (AUC ratio spray-dried/crystalline)” value was 2.1 and the “RCmax,app (Cmax,app ratio spray-dried/crystalline)” value was 2.5. For the same compound, in data set [1] (freshly spray-dried (SD T0)), the “RAUC (AUC ratio spray-dried/crystalline)” value amounted to 1.9 and the “RCmax,app (Cmax,app ratio spray-dried/crystalline)” value came to 2.3. In data set [2], the “Estimated Amorphous Content at Day 168” value was 100%, the “Stability for 168 Days at 75% RH” value is “High”, the “Crystallization Initiation Propensity” value was “Low” and the “Time to Complete Crystallization” value is >168 days. For the same compound, the “Time to Start Crystallization” value in data set [2] was >168 days. Moreover, the “Time to Start Crystallization” value in data set [2] (listed as indapamide) is ≥ 168 days.

`CC(=O)N1CCN(c2ccc(OCC3COC(Cn4ccnc4)(c4ccc(Cl)cc4Cl)O3)cc2)CC1` (centres unmarked) [Ketoconazole, ketoconazole]: in data set [1] (setting [4]), the “Ratio AUC (RAUC)” value is recorded as 0.7 and the “Ratio Cmax (RCmax,app)” value was 0.9. In data set [1] (setting [5]), the “Decrease of AUC ratio versus fresh sample” value is given as 50% and the “Decrease of Cmax ratio (Cmax,app) versus fresh sample” value is reported as 50%. For the same compound, in data set [1] (setting [6]), the “Ratio AUC (RAUC)” value came to 0.8 and the “Ratio Cmax (RCmax,app)” value is given as 1.1. Moreover, in data set [1] (setting [3]), the “RAUC (AUC ratio spray-dried/crystalline)” value was 0.8 and the “RCmax,app (Cmax,app ratio spray-dried/crystalline)” value is listed as 1.1. In data set [1] (completely crystallized spray-dried sample), the “Decrease of RCmax,app versus fresh sample” value is on record as 50%. Besides, in data set [1] (freshly spray-dried (SD T0)), the “RAUC (AUC ratio spray-dried/crystalline)” value is reported as 1.6 and the “RCmax,app (Cmax,app ratio spray-dried/crystalline)” value is 2.0. Also, the Estimated crystalline content in data set [2] (2-day sample (T2D) at 75% RH) is on record as 23%. In data set [2], the “Estimated Amorphous Content at Day 168” value is reported as 0%, the “Stability for 168 Days at 75% RH” value is listed as “Low”, the “Crystal Growth” value was “Rapid” and the “Crystallization Initiation Propensity” value was “High”. For the same compound, in data set [2], the “Time to Complete Crystallization” value came to 7 days and the “Time to Start Crystallization” value was determined as 1 days.

In the case of `Cc1ccccc1N1C(=O)c2cc(S(N)(=O)=O)c(Cl)cc2NC1C` (centres unmarked) [Metolazone, metolazone], in data set [1] (setting [3]), the “RAUC (AUC ratio spray-dried/crystalline)” value worked out at 1.8 and the “RCmax,app (Cmax,app ratio spray-dried/crystalline)” value amounted to 2.8. In addition, in data set [1] (freshly spray-dried (SD T0)), the “RAUC (AUC ratio spray-dried/crystalline)” value amounted to 1.5 and the “RCmax,app (Cmax,app ratio spray-dried/crystalline)” value is given as 2.8. Besides, in data set [2], the “Estimated Amorphous Content at Day 168” value is listed as 100%, the “Stability for 168 Days at 75% RH” value was “High”, the “Crystallization Initiation Propensity” value is given as “Low” and the “Time to Complete Crystallization” value was >168 days. Also, the “Time to Start Crystallization” value in data set [2] is >168 days. For the same compound, in data set [2] (listed as metolazone), the “Time to Start Crystallization” value was ≥ 168 days.

`COc1ccc(Cl)cc1C(=O)NCCc1ccc(S(=O)(=O)NC(=O)NC2CCCCC2)cc1` [Glibenclamide, glibenclamide]: in data set [1] (setting [3]), the “RAUC (AUC ratio spray-dried/crystalline)” value was 4.4 and the “RCmax,app (Cmax,app ratio spray-dried/crystalline)” value is listed as 7.6. Further, in data set [1] (freshly spray-dried (SD T0)), the “RAUC (AUC ratio spray-dried/crystalline)” value is recorded as 4.1 and the “RCmax,app (Cmax,app ratio spray-dried/crystalline)” value is 7.2. Further, in data set [1] (setting [7]), the “RAUC, times higher than the crystalline counterparts” value was ~4 times and the “RCmax,app, times higher than the crystalline counterparts” value is on record as “approximately 7 times”. Also, in data set [2], the “Estimated Amorphous Content at Day 168” value is recorded as 94%, the “Stability for 168 Days at 75% RH” value is on record as “Moderate”, the “Crystal Growth” value is given as “Slow” and the “Crystallization Initiation Propensity” value is listed as “High”. Moreover, in data set [2], the “Time to Complete Crystallization” value was >168 days and the “Time to Start Crystallization” value was found to be 1 days. Besides, the “Estimated Amorphous Content at Day 168” value in data set [2] (listed as glibenclamide) is “approximately 94%”. In data set [2] (after 168 days at 75% RH), the Estimated crystalline content is recorded as 6%.

Regarding `C[C@]12CCC(=O)C=C1CC[C@@H]1[C@@H]2[C@@H](O)C[C@@]2(C)[C@H]1CC[C@]2(O)C(=O)CO` [Hydrocortisone, hydrocortisone], in data set [2], the “Estimated Amorphous Content at Day 168” value is recorded as ~89%, the “Stability for 168 Days at 75% RH” value was “Moderate”, the “Crystal Growth” value is reported as “Slow” and the “Crystallization Initiation Propensity” value is “High”. Moreover, the “Time to Start Crystallization” value in data set [2] is 1 days. In data set [2] (after 168 days at 75% RH), the Estimated crystalline content is recorded as 11%.

With `Nc1ccc(S(=O)(=O)Nc2nccs2)cc1` [Sulfathiazole, sulfathiazole], in data set [1] (setting [3]), the “RAUC (AUC ratio spray-dried/crystalline)” value was 1.5 and the “RCmax,app (Cmax,app ratio spray-dried/crystalline)” value is 1.5. In data set [1] (freshly spray-dried (SD T0)), the “RAUC (AUC ratio spray-dried/crystalline)” value is 1.5 and the “RCmax,app (Cmax,app ratio spray-dried/crystalline)” value came out at 1.6. In data set [2], the “Estimated Amorphous Content at Day 168” value is 0%, the “Stability for 168 Days at 75% RH” value is recorded as “Low”, the “Crystal Growth” value was “Rapid” and the “Crystallization Initiation Propensity” value was “High”. In addition, in data set [2], the “Time to Complete Crystallization” value came out at 1 days and the “Time to Start Crystallization” value is 1 days.

On to `NS(=O)(=O)c1cc2c(cc1Cl)NCNS2(=O)=O` [Hydrochlorothiazide, hydrochlorothiazide], for which, in data set [2], the “Estimated Amorphous Content at Day 168” value is reported as 0%, the “Stability for 168 Days at 75% RH” value is “Low”, the “Crystal Growth” value is reported as “Rapid” and the “Crystallization Initiation Propensity” value was “High”. Besides, in data set [2], the “Time to Complete Crystallization” value turned out to be 1 days and the “Time to Start Crystallization” value came out at 1 days.
